Drawing on PubChem BioAssay AID540269 (Sanford-Burnham Center for Chemical Genomics, 2011), this text covers IC50 for 23 compounds.

A word on the IC50: it is the concentration needed to halve the response being measured.

Activity calls are given as the source filed them. The rule behind the calls is not given here.

In this assay the target is glucose-6-phosphate dehydrogenase-6-phosphogluconolactonase (Plasmodium falciparum 3D7). Nature of the assay: inhibition of P. falciparum G6PD activity – biochemical, kinetic NADPH detection, orthogonal assay, dose response (AID 540269). To be noted: purified PfG6PD-6PGL.
In the case of `Cc1c(Cl)c([N+](=O)[O-])nn1Cc1ccc(C(=O)N/N=C\c2cccc(Br)c2)o1`, the IC50 is > 80 µM (inactive).

`O=C(CNC(=O)c1cccs1)NCC(=O)OCC(=O)c1ccc([N+](=O)[O-])cc1`: the IC50 is 62.9 µM.

On to `O=[N+]([O-])c1cccc(SSc2cccc([N+](=O)[O-])c2)c1`, for which the IC50 is 71.5 µM. As to `CC1(OC(=O)C2CCCC2)C(=O)C=C2C=C(c3ccsc3)N(CC3CC3)C=C2C1=O` (stereo not drawn), the IC50 is > 80 µM (inactive). As for `COC(=O)CCC(=O)OC1(C)C(=O)C2=CN(C3CC3)C(c3ccc(OC)cc3)=CC2=C(Br)C1=O` (stereo not drawn), the figure is 45.8 µM; as for `O=S(=O)(Nc1cc(Sc2cccc3cccnc23)c(O)c2ccccc12)c1ccc(F)cc1`, 59.4 µM. In the case of `Oc1ccc(NCc2ccccc2OCc2ccccc2)cc1`, the IC50 is 53.9 µM. As to `CCN(CC)c1ccc(NC(=O)c2cccc(C)c2)cc1S(=O)(=O)Nc1ccccc1OC`, the IC50 is 31.3 µM. As to `CC(C)Cn1c([N+](=O)[O-])nc2c1c(=O)[nH]c(=O)n2C`, the IC50 is > 80 µM (inactive). Turning to `COc1ccc(S(=O)(=O)Nc2cc(SCC(=O)O)c(O)c3ccccc23)cc1`, the IC50 is 44.9 µM.

For `CCOc1ccccc1NS(=O)(=O)c1c(C)noc1C`, the IC50 was > 80 µM (inactive).

`CC(C)Sc1nnc(NC(=O)c2ccc3c(c2)OCO3)s1`: the IC50 was 29.5 µM. Take `CN(C)c1ccc(C=c2c3ccccc3n3c2c2ccccc2[n+]3C)cc1`: the IC50 was 32.8 µM. For `O=C(Sc1n[nH]c(=O)[nH]c1=O)c1ccccc1`, the IC50 was 22.8 µM. Consider `Cc1ccc(-c2nn(C)c(=O)c3ccccc23)cc1CNC(=O)/C=C/c1ccccc1`, for which the IC50 is 68.6 µM.

As to `COC(=O)CCC(=O)OC1(C)C(=O)C2=CN(c3ccc(OC)cc3)C(c3ccc(OC)cc3)=CC2=C(Br)C1=O` (stereo not drawn), the IC50 is > 80 µM (inactive). On to `Cc1cc(O)c(C(C)C)cc1N=Cc1ccc([N+](=O)[O-])cc1`, for which the IC50 is > 80 µM (inactive). Regarding `CCS(=O)(=O)N1CCN(c2ccc([N+](=O)[O-])c(NC(C)c3ccccc3)c2)CC1` (stereo not drawn), the IC50 was > 80 µM (inactive). As to `CCCCCCCCSC1=CC(=O)C(OC)=C(OC)C1=O`, the IC50 is > 80 µM (inactive). Turning to `CCOC(=O)Cc1cc(=O)n2[nH]c(C(C)(C)C)cc2n1`, the IC50 is > 80 µM (inactive).

On to `COc1ccc(CN(C)S(=O)(=O)c2nnc(NC(=O)c3cccc(C)c3)s2)cc1OC`, for which the IC50 is 22.2 µM. Take `Cc1cccc(OCC(=O)NCC(=O)N/N=C/c2ccccc2)c1`: the IC50 was > 80 µM (inactive). With `CN(C)c1cccc2c1c(NC(=O)c1ccc(Cl)cc1)nn2C`, the IC50 is > 80 µM (inactive).
